Assays:
[1] = In vitro human skin permeation study of topical gel formulations (Franz diffusion cells); type: in vitro ADME; conditions: Study-1, Example 8 gel, human skin
Source text: The gel formulation of Example 8 was used as the donor phase to determine the permeation of Compound 1.002 through human skin and its effectiveness as a topical application. Three skin donors and three diffusion cells (for each donor) per formulation were used in the in vitro skin permeation experiments. Split thickness dermatomed (approximately at […] thickness) human cadaver skin, supplied by New York Firefighters Skin Bank, NY, was used to determine the permeation rate of the tested compound (i.e., the drug) in vitro. All in vitro skin permeation studies were conducted using the Vertical Diffusion Cells assembly with consoles (Model FDC-6), and heating controllers (Logan Instruments Inc. Somerset, NJ). Each assembly consisted of six vertical, jacketed (37° C.±0.5° C.) 12-mL Franz diffusion cells with magnetic stirrer and 1.767 cm^2 diffusion area.
Skin flux studies were run for a period of 48 hours. At predetermined intervals (2, 4, 8, 24 and 48 hours) after starting the experiment, the entire contents of the receiver compartment were collected for determining concentrations of the drug by HPLC. The receiver compartment was refilled with fresh receiver medium. The receiver medium was pH 7.4 phosphate buffer with 0.5 mg/ml of Oleath 20 with the saturation concentration of the drug in the receptor medium being 0.152 mg/ml. This solubility of the drug in the receiver medium was enough to ensure sink conditions throughout each collection interval.
Samples of the receptor phase were obtained at 2, 4, 8, 12, 24 and 48 h and concentrations of Compound 1.002 and 3-(4-morpholinothieno(3,2-d)pyrimidin-2-yl)phenol (metabolite of Compound 1.002, abbreviated as MTPP) were determined using a validated HPLC method. The metabolism of Compound 1.002 to MTPP takes place in the human skin by esterase enzymes.
HPLC method: Column—Gemini C-18 4.6×150 mm, 5 μm particle size; Mobile Phase—water:acetonitrile 25:75 containing 0.1% TFA; Flow Rate—1 mL/min; Detection—274 nm; Column Temperature—40° C.; and Run Time—10 min. The retention times for MTPP and Compound 1.002 were 3.9 and 7.2 minutes, respectively.
The skin flux of drugs and cumulative amount of drugs permeated (sum of MTPP and Compound 1.002) for a period of 48 hours were calculated and are shown in Table 3. FIG. 3 represents a plot of Cumulative amount permeated versus time.

[2] = Human skin permeation from liquid reservoir transdermal patch over 7 days; type: in vitro ADME; conditions: liquid reservoir patch with Table 11 gel
Experimental: Liquid reservoir transdermal patches of FIG. 6 were prepared and used for the study of delivery of Compound 1.002. The transdermal patches were used to deliver Compound 1.002 in vitro through human skin for 7 days from a single patch application. The following gel formulation having composition as shown in Table 11 was prepared according to Example 8 and incorporated into the reservoir patch system.
Patches using the gel formulation having compositions of Table 11 were prepared in accordance with the process shown in FIG. 7. The patch was 1.8 cm^2 in size containing 0.3 mL of the gel formulation. The backing layer of the patch was Scotchpak® 9723, which is a laminate of polyester and polyethylene commonly used in transdermal patches. The controlling membrane was SOLUPOR® 10P05A, which is a highly porous (up to 90% porous) Ultra High Molecular Weight Polyethylene membrane with controlled pore size. The pressure sensitive adhesive in contact with the human skin was […], which is a non-crosslinked acrylate copolymer with no functional groups.
Compound 1.002 was confirmed to metabolize to MTPP by estarases as it permeates through the human skin.

[3] = Accelerated stability study of topical gel formulations at 80° C.; type: physicochemical; conditions: gel formulation (Table 2 excipients), 80° C.
Experimental: Topical gel formulations were prepared using excipients as shown in Table 2 according to Example 8, in which Compounds 1.002, 1.012, and 1.006 were used as the active ingredient, respectively. These gel formulations were subjected to stability study at 80° C. for 10 days. Stability under the condition of at 80° C. for 10 days is expected to be approximately equivalent to the stability for three (3) years at room temperature. A relative purity of the tested compound after being exposed for 5 days and 10 days at 80° C. was determined by HPLC, as compared to its initial purity (at day 0).
The values shown in the table are percent hydrolysis of the respective compounds to the parent compound MTPP.
Topical gel formulations of Compound 1.002 were prepared using excipients as shown in Table 2 according to Example 8, in which the content of oleic acid varied at 1%, 2%, 5%, and 10%, respectively. These gel formulations were subjected to stability study at 80° C. for 10 days, which is expected to be approximately equivalent to the stability for three (3) years at room temperature. A purity of the tested compound on day 0, 5, 7, and 10 at 80° C. was determined by HPLC. The detected impurity of the tested compound appears to be the hydrolysis product, as MTPP. Table 17 represents stability data of Compound 1.002 in topical formulations having oleic acid at various contents.
Gel formulations of Example 17 were subjected to stability study at 80° C. for 10 days. Stability under the condition of at 80° C. for 10 days is expected to be approximately equivalent to the stability for three (3) years at room temperature. A relative purity of Compound 1.002 after being exposed for 5 days and 10 days at 80° C. was determined by HPLC, as compared to its initial purity (at day 0).

[4] = In vitro human skin permeation study of topical gel formulations (Franz diffusion cells); type: in vitro ADME
[5] = Study-1, Example 8 gel, human skin, Donor 1, 2 h
[6] = Study-1, Example 8 gel, human skin, Donor 1, 4 h
[7] = Study-1, Example 8 gel, human skin, Donor 1, 8 h
[8] = Study-1, Example 8 gel, human skin, Donor 1, 24 h
[9] = Study-1, Example 8 gel, human skin, Donor 1, 48 h
[10] = Study-1, Example 8 gel, human skin, Donor 2, 2 h
[11] = Study-1, Example 8 gel, human skin, Donor 2, 8 h
[12] = Study-1, Example 8 gel, human skin, Donor 2, 24 h
[13] = Study-1, Example 8 gel, human skin, Donor 2, 48 h
[14] = Study-1, Example 8 gel, human skin, Donor 3, 4 h
[15] = Study-1, Example 8 gel, human skin, Donor 3, 8 h
[16] = Study-1, Example 8 gel, human skin, Donor 3, 24 h
[17] = Study-1, Example 8 gel, human skin, Donor 3, 48 h
[18] = Study-2, gel saturated at 120 mg/mL, human skin, 2 h
[19] = Study-2, gel saturated at 120 mg/mL, human skin, 4 h
[20] = Study-2, gel saturated at 120 mg/mL, human skin, 8 h
[21] = Study-2, gel saturated at 120 mg/mL, human skin, 24 h
[22] = Study-2, gel saturated at 120 mg/mL, human skin, 48 h

- Hydrolysis of Cmpd. 1.002 to MTPP ([1]; Donor 2, 4 h): 100%
- Cumulative permeation, Cmpd. 1.002 ([1]; Donor 3, 2 h): 0.00 μg/cm^2
- Compound 1.002 metabolized to MTPP after permeating through the human skin [2]: approximately 85%
- Relative Purity ([3]; Day 0): 100%
- Relative Purity ([3]; Day 5): 96%
- Relative Purity ([3]; Day 10): 94%
- Share of total permeated (MTPP+Compound 1.002) that was Compound 1.002 ([4]; Example 16, three formulations, 24 hour time point): about 10%
- Cumulative permeation, Cmpd. 1.002 [4, 5]: 0.00 μg/cm^2
- Hydrolysis of Cmpd. 1.002 to MTPP [4, 5]: 100%
- Cumulative permeation, Cmpd. 1.002 [4, 6]: 0.00 μg/cm^2
- Hydrolysis of Cmpd. 1.002 to MTPP [4, 6]: 100%
- Cumulative permeation, Cmpd. 1.002 [4, 7]: 0.00 μg/cm^2
- Hydrolysis of Cmpd. 1.002 to MTPP [4, 7]: 100%
- Cumulative permeation, Cmpd. 1.002 [4, 8]: 13.47 μg/cm^2
- Hydrolysis of Cmpd. 1.002 to MTPP [4, 8]: 82.9%
- Cumulative permeation, Cmpd. 1.002 [4, 9]: 85.01 μg/cm^2
- Hydrolysis of Cmpd. 1.002 to MTPP [4, 9]: 58.5%
- Cumulative permeation, Cmpd. 1.002 [4, 10]: 0.00 μg/cm^2
- Hydrolysis of Cmpd. 1.002 to MTPP [4, 10]: 100%
- Cumulative permeation, Cmpd. 1.002 ([4]; Study-1, Example 8 gel, human skin, Donor 2, 4 h): 0.00 μg/cm^2
- Cumulative permeation, Cmpd. 1.002 [4, 11]: 1.09 μg/cm^2
- Hydrolysis of Cmpd. 1.002 to MTPP [4, 11]: 87.0%
- Cumulative permeation, Cmpd. 1.002 [4, 12]: 15.44 μg/cm^2
- Hydrolysis of Cmpd. 1.002 to MTPP [4, 12]: 83.6%
- Cumulative permeation, Cmpd. 1.002 [4, 13]: 82.83 μg/cm^2
- Hydrolysis of Cmpd. 1.002 to MTPP [4, 13]: 59.6%
- Cumulative permeation, Cmpd. 1.002 [4, 14]: 0.00 μg/cm^2
- Hydrolysis of Cmpd. 1.002 to MTPP [4, 14]: 100%
- Cumulative permeation, Cmpd. 1.002 [4, 15]: 0.00 μg/cm^2
- Hydrolysis of Cmpd. 1.002 to MTPP [4, 15]: 100%
- Cumulative permeation, Cmpd. 1.002 [4, 16]: 5.18 μg/cm^2
- Hydrolysis of Cmpd. 1.002 to MTPP [4, 16]: 92.0%
- Cumulative permeation, Cmpd. 1.002 [4, 17]: 70.87 μg/cm^2
- Hydrolysis of Cmpd. 1.002 to MTPP [4, 17]: 65.5%
- Amount of permeated Compound 1.002 metabolized to MTPP ([4]; Study-1 and Study-2, human skin, first 24-hour period): 82%-100%
- Cumulative permeation, Cmpd. 1.002 [4, 18]: 0.00 μg/cm^2
- Hydrolysis of Cmpd. 1.002 to MTPP [4, 18]: 100%
- Cumulative permeation, Cmpd. 1.002 [4, 19]: 0.00 μg/cm^2
- Hydrolysis of Cmpd. 1.002 to MTPP [4, 19]: 100%
- Cumulative permeation, Cmpd. 1.002 [4, 20]: 0.00 μg/cm^2
- Hydrolysis of Cmpd. 1.002 to MTPP [4, 20]: 100%
- Cumulative permeation, Cmpd. 1.002 [4, 21]: 0.00 μg/cm^2
- Hydrolysis of Cmpd. 1.002 to MTPP [4, 21]: 100%
- Cumulative permeation, Cmpd. 1.002 [4, 22]: 78.10 μg/cm^2
- Hydrolysis of Cmpd. 1.002 to MTPP [4, 22]: 83.9%
- Permeation through human skin relative to MTPP ([4]; Study-3, saturated gel formulations, 48 hour period, FIG. 4): about 6 times
SMILES: CC(=O)Oc1cccc(-c2nc(N3CCOCC3)c3sccc3n2)c1 [Compound 1.002, 3-(4-Morpholinothieno[3,2-d]pyrimidin-2-yl)phenyl Acetate]
- Effect of oleic acid amount on flux through human skin ([4]; Example 15, gels with 1%, 2%, 5% and 10% oleic acid, FIG. 13): increases as the increase of the amount of oleic acid
- Metabolism of Compound 1.002 to MTPP ([4]; Example 15, gels with 1%, 2%, 5% and 10% oleic acid, human skin): Majority of Compound 1.002 metabolized to MTPP
